According to patent US10584115B2, “Substituted pyridine and pyrazine BMI-1 inhibitors” (PTC Therapeutics, Inc., priority 2013, dated 2020):

Tested on: Bmi-1 protein
Experiment: Sandwich ELISA Assay (Bmi-1 protein level in HT-1080 cells after compound treatment)
Type: cell-based
Settings: Table 1, Bmi-1 sandwich ELISA, read-out: ELISA EC50 value for Bmi-1 protein
In short: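 HT-1080 cells exposed to compounds for 40–48 h at 37 °C (0.5% DMSO final), then lysed. Bmi-1 in lysates measured by sandwich ELISA (mouse monoclonal capture, rabbit anti-Bmi-1 detection, HRP anti-rabbit, TMB), read at OD450 with OD570 reference against a recombinant Bmi-1 standard curve (0–8000 pg/mL).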

Compound | EC50 [nM]
FC(F)(F)c1ccc(Nc2cccc(-n3c(C(F)(F)F)nc4ncccc43)n2)cc1 [compound 137, 6-[2-(trifluoromethyl)-1H-imidazo[4,5-b]pyridin-1-yl]-N-[4-(trifluoromethyl)phenyl]pyridin-2-amine] | 100 to 3000
CCNc1nc2ccccc2n1-c1cncc(Nc2ccc(C(F)(F)F)cc2)n1 [compound 138, N-ethyl-1-(6-{[4-(trifluoromethyl)phenyl]amino}pyrazin-2-yl)-1H-benzimidazol-2-amine] | 10 to 100
Cc1nc2ncccc2n1-c1cccc(Nc2ccc(C(F)(F)F)cc2)n1 [compound 139, 6-(2-methyl-1H-imidazo[4,5-b]pyridin-1-yl)-N-[4-(trifluoromethyl)phenyl]pyridin-2-amine] | 10 to 100
CCc1nc2ncccc2n1-c1cccc(Nc2ccc(C(F)(F)F)cc2)n1 [compound 140, 6-(2-ethyl-1H-imidazo[4,5-b]pyridin-1-yl)-N-[4-(trifluoromethyl)phenyl]pyridin-2-amine] | 10 to 100
FC(F)(F)Oc1ccc(Nc2cncc(-c3c(C(F)(F)F)nc4cnccn34)n2)cc1 [compound 141, N-[4-(trifluoromethoxy)phenyl]-6-[2-(trifluoromethyl)imidazo[1,2-a]pyrazin-3-yl]pyrazin-2-amine] | 100 to 3000
FC(F)Oc1ccc(Nc2cncc(-c3c(C(F)(F)F)nc4cnccn34)n2)cc1 [compound 142, N-[4-(difluoromethoxy)phenyl]-6-[2-(trifluoromethyl)imidazo[1,2-a]pyrazin-3-yl]pyrazin-2-amine] | 10 to 100
Cc1nn(C)c(C)c1-c1cncc(Nc2ccc(OC(F)F)cc2)n1 [compound 143, N-[4-(difluoromethoxy)phenyl]-6-(1,3,5-trimethyl-1H-pyrazol-4-yl)pyrazin-2-amine] | < 1
Cc1nn(C)c(C)c1-c1cccc(Nc2ccc(OC(F)(F)F)cc2)n1 [compound 144, N-[4-(trifluoromethoxy)phenyl]-6-(1,3,5-trimethyl-1H-pyrazol-4-yl)pyridin-2-amine] | 100 to 3000
CC(O)c1nc2ccccc2n1-c1cncc(Nc2ccc(C(F)(F)F)cc2)n1 (stereo not shown) [compound 150, 1-[1-(6-{[4-(trifluoromethyl)phenyl]amino}pyrazin-2-yl)-1H-benzimidazol-2-yl]ethanol] | 10 to 100
OCc1nc2ccccn2c1-c1cncc(Nc2ccc(C(F)(F)F)cc2)n1 [compound 151, [3-(6-{[4-(trifluoromethyl)phenyl]amino}pyrazin-2-yl)imidazo[1,2-a]pyridin-2-yl]methanol] | 1 to 10
Cc1nc2ccccc2n1-c1cncc(Nc2ccc(CO)cc2)n1 [compound 152, (4-{[6-(2-methyl-1H-benzimidazol-1-yl)pyrazin-2-yl]amino}phenyl)methanol] | 10 to 100
CC(=O)c1ccc(Nc2cncc(-n3c(C)nc4ccccc43)n2)cc1 [compound 153, 1-(4-{[6-(2-methyl-1H-benzimidazol-1-yl)pyrazin-2-yl]amino}phenyl)ethanone] | 1 to 10
Cc1nc2ccccc2n1-c1cncc(Nc2ccc(C(C)O)cc2)n1 (stereo not shown) [compound 155, 1-(4-{[6-(2-methyl-1H-benzimidazol-1-yl)pyrazin-2-yl]amino}phenyl)ethanol] | 10 to 100
C/C(=N\O)c1ccc(Nc2cncc(-n3c(C)nc4ccccc43)n2)cc1 [compound 156, N-{4-[(1E)-N-hydroxyethanimidoyl]phenyl}-6-(2-methyl-1H-benzimidazol-1-yl)pyrazin-2-amine] | 1 to 10
N#Cc1nc2ccccc2n1-c1cncc(Nc2ccc(C(F)(F)F)cc2)n1 [compound 157, 1-(6-{[4-(trifluoromethyl)phenyl]amino}pyrazin-2-yl)-1H-benzimidazole-2-carbonitrile] | 100 to 3000
O=[N+]([O-])c1cc(Nc2ccc(C(F)(F)F)cc2)nc(-c2c(C(F)(F)F)nc3ccccn23)c1 [compound 158, 4-nitro-6-[2-(trifluoromethyl)imidazo[1,2-a]pyridin-3-yl]-N-[4-(trifluoromethyl)phenyl]pyridin-2-amine] | 10 to 100
Nc1cc(Nc2ccc(C(F)(F)F)cc2)nc(-c2c(C(F)(F)F)nc3ccccn23)c1 [compound 159, 6-[2-(trifluoromethyl)imidazo[1,2-a]pyridin-3-yl]-N^2-[4-(trifluoromethyl)phenyl]pyridine-2,4-diamine] | 1 to 10
OCCNc1cc(Nc2ccc(C(F)(F)F)cc2)nc(-c2c(C(F)(F)F)nc3ccccn23)c1 [compound 160, 2-[(2-[2-(trifluoromethyl)imidazo[1,2-a]pyridin-3-yl]-6-{[4-(trifluoromethyl)phenyl]amino}pyridin-4-yl)amino]ethanol] | 10 to 100
COCCNc1cc(Nc2ccc(C(F)(F)F)cc2)nc(-c2c(C(F)(F)F)nc3ccccn23)c1 [compound 161, N^4-(2-methoxyethyl)-6-[2-(trifluoromethyl)imidazo[1,2-a]pyridin-3-yl]-N^2-[4-(trifluoromethyl)phenyl]pyridine-2,4-diamine] | 10 to 100
Cc1cc2ccccc2n1-c1cncc(Nc2ccc(C(F)(F)F)cc2)n1 [compound 162] | 100 to 3000

Compound | EC50 [nM]
Cc1cc2ccccc2n1-c1cncc(Nc2ccc(OC(F)F)cc2)n1 [compound 163, N-[4-(difluoromethoxy)phenyl]-6-(2-methyl-1H-indol-1-yl)pyrazin-2-amine] | 100 to 3000
COc1ccc(Nc2cncc(-n3c(C)cc4ccccc43)n2)cc1 [compound 164, N-(4-methoxyphenyl)-6-(2-methyl-1H-indol-1-yl)pyrazin-2-amine] | 10 to 100
Cc1nc2cnccc2n1-c1cncc(Nc2ccc(C(F)(F)F)cc2)n1 [compound 166, 6-(2-methyl-1H-imidazo[4,5-c]pyridin-1-yl)-N-[4-(trifluoromethyl)phenyl]pyrazin-2-amine] | 100 to 3000
CSc1nc2ccccc2n1-c1cncc(Nc2ccc(OC(F)(F)F)cc2)n1 [compound 167, 6-[2-(methylsulfanyl)-1H-benzimidazol-1-yl]-N-[4-(trifluoromethoxy)phenyl]pyrazin-2-amine] | 100 to 3000
Cc1ccc(Nc2cncc(-c3c(C(F)(F)F)nc4cnccn34)n2)cc1 [compound 168, N-(4-methylphenyl)-6-[2-(trifluoromethyl)imidazo[1,2-a]pyrazin-3-yl]pyrazin-2-amine] | 10 to 100
O=[N+]([O-])c1cc(Nc2ccc(OC(F)F)cc2)nc(-c2c(C(F)(F)F)nc3ccccn23)c1 [compound 169, N-[4-(difluoromethoxy)phenyl]-4-nitro-6-[2-(trifluoromethyl)imidazo[1,2-a]pyridin-3-yl]pyridin-2-amine] | 10 to 100
Nc1cc(Nc2ccc(OC(F)F)cc2)nc(-c2c(C(F)(F)F)nc3ccccn23)c1 [compound 170, N^2-[4-(difluoromethoxy)phenyl]-6-[2-(trifluoromethyl)imidazo[1,2-a]pyridin-3-yl]pyridine-2,4-diamine] | 100 to 3000
OCCNc1cc(Nc2ccc(OC(F)F)cc2)nc(-c2c(C(F)(F)F)nc3ccccn23)c1 [compound 171] | 10 to 100
COCCNc1cc(Nc2ccc(OC(F)F)cc2)nc(-c2c(C(F)(F)F)nc3ccccn23)c1 [compound 172, N^2-[4-(difluoromethoxy)phenyl]-N^4-(2-methoxyethyl)-6-[2-(trifluoromethyl)imidazo[1,2-a]pyridin-3-yl]pyridine-2,4-diamine] | 10 to 100
CSc1cc(Nc2ccc(C(F)(F)F)cc2)nc(-c2c(C(F)(F)F)nc3ccccn23)c1 [compound 173, 4-(methylsulfanyl)-6-[2-(trifluoromethyl)imidazo[1,2-a]pyridin-3-yl]-N-[4-(trifluoromethyl)phenyl]pyridin-2-amine] | 100 to 3000
COc1ccc(Nc2cccc(-n3c(C)cc4ccccc43)n2)cc1 [compound 174, N-(4-methoxyphenyl)-6-(2-methyl-1H-indol-1-yl)pyridin-2-amine] | 100 to 3000
CCc1nc2cc(F)c(F)cc2n1-c1cncc(Nc2ccc(C(F)(F)F)cc2)n1 [compound 177, 6-(2-ethyl-5,6-difluoro-1H-benzimidazol-1-yl)-N-[4-(trifluoromethyl)phenyl]pyrazin-2-amine] | 10 to 100
CSc1nc2ccccc2n1-c1cncc(Nc2ccc(OC(F)F)cc2)n1 [compound 181, N-[4-(difluoromethoxy)phenyl]-6-[2-(methylsulfanyl)-1H-benzimidazol-1-yl]pyrazin-2-amine] | 10 to 100
Fc1cc2nc(C3CC3)n(-c3cncc(Nc4ccc(C(F)(F)F)cc4)n3)c2cc1F [compound 182, 6-(2-cyclopropyl-5,6-difluoro-1H-benzimidazol-1-yl)-N-[4-(trifluoromethyl)phenyl]pyrazin-2-amine] | 10 to 100
CNc1nc2ccccc2n1-c1cncc(Nc2ccc(OC(F)(F)F)cc2)n1 [compound 183, N-methyl-1-(6-{[4-(trifluoromethoxy)phenyl]amino}pyrazin-2-yl)-1H-benzimidazol-2-amine] | 10 to 100
N#Cc1nc2ccccc2n1-c1cncc(Nc2ccc(OC(F)(F)F)cc2)n1 [compound 184, 1-(6-{[4-(trifluoromethoxy)phenyl]amino}pyrazin-2-yl)-1H-benzimidazole-2-carbonitrile] | 100 to 3000
Cc1nc2ccccc2n1-c1cncc(Nc2ccc(C(N)=O)cc2)n1 [compound 185, 4-{[6-(2-methyl-1H-benzimidazol-1-yl)pyrazin-2-yl]amino}benzamide] | 100 to 3000
CNC(=O)c1ccc(Nc2cncc(-n3c(C)nc4ccccc43)n2)cc1 [compound 186, N-methyl-4-{[6-(2-methyl-1H-benzimidazol-1-yl)pyrazin-2-yl]amino}benzamide] | 100 to 3000
CNc1nc2ccccc2n1-c1cncc(Nc2ccc(OC(F)F)cc2)n1 [compound 187, 1-(6-{[4-(difluoromethoxy)phenyl]amino}pyrazin-2-yl)-N-methyl-1H-benzimidazol-2-amine] | 1 to 10
N#Cc1nc2ccccc2n1-c1cncc(Nc2ccc(OC(F)F)cc2)n1 [compound 188, 1-(6-{[4-(difluoromethoxy)phenyl]amino}pyrazin-2-yl)-1H-benzimidazole-2-carbonitrile] | 10 to 100
